Measured values published in PubChem BioAssay AID1918953 (Molecular Pharmacology Branch, DTP, NCI, 2023).
pIC50: −log10 of the molar value. “And” between values parts separate entries of the source, which are not always exact repeats. Identical values can stand only once.

System: MDA-MB-231 complex spheroid viability
Experiment: Anticancer human tumor MDA-MB-231/ATCC cell line growth inhibition;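 further: drug exposure lasted 7 days starting on day 3 of spheroid growth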
Details: for viability, T/C: stronger effect = lower value
Summary of the method: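 Multicellular complex spheroids of tumor cells with human endothelial cells (HUVEC) and mesenchymal stem cells; the LSD1 inhibitor iadademstat was combined with standard-of-care or investigational agents. Top concentration at or near clinical Cmax, half-log dilutions; final DMSO ≤0.25%.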

[1] = curve of first compound, second compound 0.1 µM
[2] = curve of first compound, second compound 0.316 µM
[3] = curve of first compound, second compound 1 µM
[4] = curve of first compound, second compound 3.16 µM
[5] = curve of first compound, second compound 10 µM
[6] = second compound 0.1 µM, first compound 0.000949 µM
[7] = second compound 0.1 µM, first compound 0.003 µM
[8] = second compound 0.1 µM, first compound 0.00949 µM
[9] = second compound 0.1 µM, first compound 0.03 µM
[10] = second compound 0.1 µM, first compound 0.0949 µM
[11] = second compound 0.1 µM, first compound 0.3 µM
[12] = second compound 0.316 µM, first compound 0.000949 µM
[13] = second compound 0.316 µM, first compound 0.003 µM
[14] = second compound 0.316 µM, first compound 0.00949 µM
[15] = second compound 0.316 µM, first compound 0.03 µM
[16] = second compound 0.316 µM, first compound 0.0949 µM
[17] = second compound 0.316 µM, first compound 0.3 µM
[18] = second compound 1 µM, first compound 0.000949 µM
[19] = second compound 1 µM, first compound 0.003 µM
[20] = second compound 1 µM, first compound 0.00949 µM
[21] = second compound 1 µM, first compound 0.03 µM
[22] = second compound 1 µM, first compound 0.0949 µM
[23] = second compound 1 µM, first compound 0.3 µM
[24] = second compound 3.16 µM, first compound 0.000949 µM
[25] = second compound 3.16 µM, first compound 0.003 µM
[26] = second compound 3.16 µM, first compound 0.00949 µM
[27] = second compound 3.16 µM, first compound 0.03 µM
[28] = second compound 3.16 µM, first compound 0.0949 µM
[29] = second compound 3.16 µM, first compound 0.3 µM
[30] = second compound 10 µM, first compound 0.000949 µM
[31] = second compound 10 µM, first compound 0.003 µM
[32] = second compound 10 µM, first compound 0.00949 µM
[33] = second compound 10 µM, first compound 0.03 µM
[34] = second compound 10 µM, first compound 0.0949 µM
[35] = second compound 10 µM, first compound 0.3 µM
[36] = second compound 0.1 µM, first compound 0.0316 µM
[37] = second compound 0.1 µM, first compound 0.1 µM
[38] = second compound 0.316 µM, first compound 0.0316 µM
[39] = second compound 0.316 µM, first compound 0.1 µM
[40] = second compound 1 µM, first compound 0.0316 µM
[41] = second compound 1 µM, first compound 0.1 µM
[42] = second compound 3.16 µM, first compound 0.0316 µM
[43] = second compound 3.16 µM, first compound 0.1 µM
[44] = second compound 10 µM, first compound 0.0316 µM
[45] = second compound 10 µM, first compound 0.1 µM

Structure (SMILES): CCc1c2c(nc3ccc(O)cc13)-c1cc3c(c(=O)n1C2)COC(=O)[C@]3(O)CC + NC1CC1c1ccc(-c2cccc(O)c2)cc1
- pIC50 [1]: > 9.02
- pIC50 [2]: > 9.02
- pIC50 [3]: > 9.02
- pIC50 [4]: > 9.02
- pIC50 [5]: > 9.02
- viability, T/C [6]: 22.7%
- viability, T/C [7]: 19.7%
- viability, T/C [8]: 18.3%
- viability, T/C [9]: 4.83%
- viability, T/C [10]: 1.03%
- viability, T/C [11]: 0.74%
- viability, T/C [12]: 22.5%
- viability, T/C [13]: 22%
- viability, T/C [14]: 19.4%
- viability, T/C [15]: 5.07%
- viability, T/C [16]: 0.91%
- viability, T/C [17]: 0.54%
- viability, T/C [18]: 23.9%
- viability, T/C [19]: 20.1%
- viability, T/C [20]: 17.1%
- viability, T/C [21]: 5.94%
- viability, T/C [22]: 0.68%
- viability, T/C [23]: 0.61%
- viability, T/C [24]: 22.4%
- viability, T/C [25]: 20.1%
- viability, T/C [26]: 18.4%
- viability, T/C [27]: 5.48%
- viability, T/C [28]: 0.85%
- viability, T/C [29]: 0.54%
- viability, T/C [30]: 18.5%
- viability, T/C [31]: 20.4%
- viability, T/C [32]: 13.1%
- viability, T/C [33]: 1.68%
- viability, T/C [34]: 0.74%
- viability, T/C [35]: 0.5%

Structure (SMILES): Nc1ccn(C2OC(CO)C(O)C2(F)F)c(=O)n1 (configuration not stated) + NC1CC1c1ccc(-c2cccc(O)c2)cc1
- pIC50 [1]: > 9.02
- pIC50 [2]: > 9.02
- pIC50 [3]: > 9.02
- pIC50 [4]: > 9.02
- pIC50 [5]: > 9.02
- viability, T/C [6]: 30.5%
- viability, T/C [7]: 24.4%
- viability, T/C [8]: 22.2%
- viability, T/C [9]: 19.4%
- viability, T/C [10]: 17.4%
- viability, T/C [11]: 12%
- viability, T/C [12]: 28%
- viability, T/C [13]: 23.6%
- viability, T/C [14]: 21.3%
- viability, T/C [15]: 14.5%
- viability, T/C [16]: 14.1%
- viability, T/C [17]: 12.9%
- viability, T/C [18]: 30.8%
- viability, T/C [19]: 21.8%
- viability, T/C [20]: 22.4%
- viability, T/C [21]: 15.6%
- viability, T/C [22]: 15.3%
- viability, T/C [23]: 12.3%
- viability, T/C [24]: 33.8%
- viability, T/C [25]: 23.9%
- viability, T/C [26]: 19.9%
- viability, T/C [27]: 17.5%
- viability, T/C [28]: 15.8%
- viability, T/C [29]: 11.3%
- viability, T/C [30]: 22.9%
- viability, T/C [31]: 18.1%
- viability, T/C [32]: 16%
- viability, T/C [33]: 13.6%
- viability, T/C [34]: 10.9%
- viability, T/C [35]: 9.95%

Structure (SMILES): Nc1ncn(C2CC(O)C(CO)S2)c(=O)n1 (configuration not stated) + NC1CC1c1ccc(-c2cccc(O)c2)cc1
- pIC50 [1]: 8.13
- pIC50 [2]: 8.24
- pIC50 [3]: 8.50
- pIC50 [4]: 8.38
- pIC50 [5]: 8.97
- viability, T/C [6]: 68.5%
- viability, T/C [7]: 61.9%
- viability, T/C [8]: 45.6%
- viability, T/C [9]: 32.4%
- viability, T/C [10]: 17%
- viability, T/C [11]: 11.3%
- viability, T/C [12]: 60.4%
- viability, T/C [13]: 59.5%
- viability, T/C [14]: 43.5%
- viability, T/C [15]: 27.6%
- viability, T/C [16]: 17.8%
- viability, T/C [17]: 9.51%
- viability, T/C [18]: 54%
- viability, T/C [19]: 53.4%
- viability, T/C [20]: 39.1%
- viability, T/C [21]: 28.5%
- viability, T/C [22]: 18.3%
- viability, T/C [23]: 10.4%
- viability, T/C [24]: 59.4%
- viability, T/C [25]: 53.7%
- viability, T/C [26]: 41.1%
- viability, T/C [27]: 31%
- viability, T/C [28]: 16.1%
- viability, T/C [29]: 9.57%
- viability, T/C [30]: 51.1%
- viability, T/C [31]: 41.2%
- viability, T/C [32]: 28.2%
- viability, T/C [33]: 19.5%
- viability, T/C [34]: 12.1%
- viability, T/C [35]: 9.21%

Structure (SMILES): CC(C)CC(NC(=O)C(Cc1ccccc1)NC(=O)c1cnccn1)B(O)O (configuration not stated) + NC1CCC(NC2CC2c2ccccc2)CC1
- pIC50 [1]: 8.92
- pIC50 [2]: 8.91
- pIC50 [3]: 8.98
- pIC50 [4]: 9.14
- pIC50 [5]: 9.32
- viability, T/C (second compound 0.1 µM, first compound 0.000316 µM): 106%
- viability, T/C (second compound 0.1 µM, first compound 0.001 µM): 59.2%
- viability, T/C (second compound 0.1 µM, first compound 0.00316 µM): 1.89%
- viability, T/C (second compound 0.1 µM, first compound 0.01 µM): 0.42%
- viability, T/C [36]: 0.53%
- viability, T/C [37]: 3.01%
- viability, T/C (second compound 0.316 µM, first compound 0.000316 µM): 107%
- viability, T/C (second compound 0.316 µM, first compound 0.001 µM): 60.7%
- viability, T/C (second compound 0.316 µM, first compound 0.00316 µM): 1.73%
- viability, T/C (second compound 0.316 µM, first compound 0.01 µM): 0.23%
- viability, T/C [38]: 0.28%
- viability, T/C [39]: 0.27%
- viability, T/C (second compound 1 µM, first compound 0.000316 µM): 104%
- viability, T/C (second compound 1 µM, first compound 0.001 µM): 52%
- viability, T/C (second compound 1 µM, first compound 0.00316 µM): 3.37%
- viability, T/C (second compound 1 µM, first compound 0.01 µM): 0.18%
- viability, T/C [40]: 0.38%
- viability, T/C [41]: 0.72%
- viability, T/C (second compound 3.16 µM, first compound 0.000316 µM): 70%
- viability, T/C (second compound 3.16 µM, first compound 0.001 µM): 42.4%
- viability, T/C (second compound 3.16 µM, first compound 0.00316 µM): 1.87%
- viability, T/C (second compound 3.16 µM, first compound 0.01 µM): 0.16%
- viability, T/C [42]: 0.08%
- viability, T/C [43]: 0.54%
- viability, T/C (second compound 10 µM, first compound 0.000316 µM): 58.9%
- viability, T/C (second compound 10 µM, first compound 0.001 µM): 34.1%
- viability, T/C (second compound 10 µM, first compound 0.00316 µM): 0.9%
- viability, T/C (second compound 10 µM, first compound 0.01 µM): 0.23%
- viability, T/C [44]: 1.54%
- viability, T/C [45]: 1.08%

Structure (SMILES): Nc1ccn(C2OC(CO)C(O)C2(F)F)c(=O)n1 (configuration not stated)
- viability, T/C (compound 0.000949 µM): 20.4% and 39.3%
- viability, T/C (compound 0.003 µM): 17.2% and 31%
- viability, T/C (compound 0.00949 µM): 15.5% and 19.9%
- viability, T/C (compound 0.03 µM): 12.6% and 17.8%
- viability, T/C (compound 0.0949 µM): 8.77% and 15.2%
- viability, T/C (compound 0.3 µM): 5.47% and 14%
- pIC50 (curve of compound): > 9.02

Structure (SMILES): CC(C)c1c(-c2ccccc2)nc2c(C#N)c[nH]n2c1=O + NC1CC1c1ccc(-c2cccc(O)c2)cc1
- pIC50 [1]: < 5.00
- pIC50 [2]: < 5.00
- pIC50 [3]: < 5.00
- pIC50 [4]: < 5.00
- pIC50 [5]: > 7.50
- viability, T/C [36]: 82.9%
- viability, T/C [37]: 84.7%
- viability, T/C (second compound 0.1 µM, first compound 0.316 µM): 82%
- viability, T/C (second compound 0.1 µM, first compound 1 µM): 85.4%
- viability, T/C (second compound 0.1 µM, first compound 3.16 µM): 83%
- viability, T/C (second compound 0.1 µM, first compound 10 µM): 82.4%
- viability, T/C [38]: 71%
- viability, T/C [39]: 69.8%
- viability, T/C (second compound 0.316 µM, first compound 0.316 µM): 70.4%
- viability, T/C (second compound 0.316 µM, first compound 1 µM): 63.1%
- viability, T/C (second compound 0.316 µM, first compound 3.16 µM): 76.2%
- viability, T/C (second compound 0.316 µM, first compound 10 µM): 62%
- viability, T/C [40]: 69.4%
- viability, T/C [41]: 69.5%
- viability, T/C (second compound 1 µM, first compound 0.316 µM): 70.7%
- viability, T/C (second compound 1 µM, first compound 1 µM): 63.6%
- viability, T/C (second compound 1 µM, first compound 3.16 µM): 58.3%
- viability, T/C (second compound 1 µM, first compound 10 µM): 52.9%
- viability, T/C [42]: 68.5%
- viability, T/C [43]: 65.1%
- viability, T/C (second compound 3.16 µM, first compound 0.316 µM): 71%
- viability, T/C (second compound 3.16 µM, first compound 1 µM): 68%
- viability, T/C (second compound 3.16 µM, first compound 3.16 µM): 62.7%
- viability, T/C (second compound 3.16 µM, first compound 10 µM): 56.5%
- viability, T/C [44]: 44.3%
- viability, T/C [45]: 42.9%
- viability, T/C (second compound 10 µM, first compound 0.316 µM): 50.8%
- viability, T/C (second compound 10 µM, first compound 1 µM): 51.5%
- viability, T/C (second compound 10 µM, first compound 3.16 µM): 44.2%
- viability, T/C (second compound 10 µM, first compound 10 µM): 45.2%
